Four compounds from patent US20260077071A1, “Targeted Delivery of Theranostic Agents” (Peter MacCallum Cancer Institute, priority 2022, published 2026) can be followed below.

Square brackets hold non-standard residues; d marks the D form. Peptide text beside a SMILES is read from it. * marks the point of attachment. DOTA = O=C(O)CN1CCN(CC(=O)O)CCN(CC(=O)*)CCN(CC(=O)O)CC1; NMe1Nal = CN[C@@H](Cc1cccc2ccccc12)C(=O)O; NMeNle = CCCC[C@H](NC)C(=O)O; Sar = CNCC(=O)O

One data set is described as follows: in vitro. The format is in vitro ADME, mouse. The note with it: mouse, tissue homogenate, pH 7.3. The protocol: Drug detoxification, drug metabolism and metabolic stability are important determinants of the efficacy of theranostic candidates in clinical settings. To assess metabolic stability, radiolabelled Compounds [^68Ga]Ga-1-4 and comparative example-2 ([^68Ga]Ga-Cmp ex-2) were challenged by incubation in either human serum, mouse liver or kidney homogenates and HEPES buffer as a negative control. Duplicate samples (750-900 pmol/mL) were incubated at 37° C. with pooled human serum, 15% mouse kidney homogenate, 30% mouse liver homogenate or 20 mM HEPES, pH 7.3 (control). Human blood was collected and serum prepared using SSTII advance vacutainer tubes according to the manufacturer's instructions (Becton Dickinson, New Jersey, USA). Mouse kidney and liver homogenates were prepared by washing the tissues in ice-cold HEPES buffer, pH 7.3 and placing them in pre-chilled tubes containing HEPES buffer and 2.38 mm metal beads (Mo-Bio Laboratories, Hilden, Germany). Tissues were homogenised using the PowerLyzer24 homogeniser (Qiagen, Hilden, Germany) according to the manufacturer's instructions. Ga-68 radiolabelled peptides were incubated with the various lysates at 37° C. and samples were collected at 15, 30, 60 and 90 min. Reactions were terminated by addition of an equal volume of acetonitrile and centrifugation for 2 min at 15,000 rpm. Supernatants were diluted in water before being analysed by HPLC using a Kinetex C18 XB column (5 μm 4.6×150 mm), eluted at 1.5 mL/min of gradient 20-60% MeCN in water containing 0.1% formic acid over 7 min.

The target in data set [1] is T1, human full-length CCK-2 receptor (Homo sapiens, UniProt P32239).
T1 construct: stably transfected to over-express the human full-length CCK-2 receptor (A431-CCK-2R); expressed in transfected cells
T1 sequence (P32239 1-447): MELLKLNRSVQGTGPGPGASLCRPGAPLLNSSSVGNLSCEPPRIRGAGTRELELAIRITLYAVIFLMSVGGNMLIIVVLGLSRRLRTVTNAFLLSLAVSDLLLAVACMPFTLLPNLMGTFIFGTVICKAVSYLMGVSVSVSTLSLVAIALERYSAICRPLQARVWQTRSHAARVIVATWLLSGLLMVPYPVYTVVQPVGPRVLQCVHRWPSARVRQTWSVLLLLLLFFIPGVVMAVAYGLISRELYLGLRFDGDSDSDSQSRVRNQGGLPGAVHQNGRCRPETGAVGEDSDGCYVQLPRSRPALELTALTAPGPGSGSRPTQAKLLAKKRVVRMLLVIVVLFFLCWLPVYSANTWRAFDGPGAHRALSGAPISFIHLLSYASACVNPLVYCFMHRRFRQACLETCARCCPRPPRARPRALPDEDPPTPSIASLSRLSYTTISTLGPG
Description: Competitive ligand binding against [^177Lu]Lu-DOTA-CP04 in A431-CCK-2R cells. The note with it: ^natGa chelated DOTA-compounds based on Peptide C (Table 5); read-out: IC50. As to the method: CCK-2 receptor binding experiments were conducted using A431 (human epidermoid carcinoma) cells stably transfected to over-express the human full-length CCK-2 receptor (A431-CCK-2R). As a negative control, A431 cells stably transfected with an empty vector were analysed simultaneously (A431-EV). A431 cells were maintained in DMEM (Gibco, Australia) media supplemented with 10% foetal calf serum and 250 μg/mL G418 as described previously (Aloj L, et al., J Nucl Med., 2004, Mar; 45(3), 485-94). The affinity of peptides for the CCK-2R was evaluated using competitive binding assays against [^177Lu]Lu-DOTA-CP04 in A431-CCK-2R cells. Briefly, 48 h before the experiment cells were plated at a density of 650,000 cells per well in 6 well plates. On the day of the experiment the peptides were diluted in DMEM supplemented with 1% foetal calf serum to at least 7 different concentrations (0-400 nM) and approximately 50,000 cpm of [^177Lu]Lu-DOTA-CP04 was added to each dilution. Cells were washed twice in ice-cold binding buffer (DMEM supplemented with 1% foetal calf serum) and resuspended in 1.5 mL of the pre-prepared compound mix before being incubated at 37° C. for 1 h. Post-incubation the media was removed and kept for analysis (unbound fraction) and the cells were washed twice in ice-cold binding buffer, which was pooled with the unbound fraction. Finally, 1 M NaOH was added to the cells and allowed to incubate for 5 min before lysates were collected (bound fraction). A small volume of lysate was kept aside to determine protein concentration using the Pierce® BCA protein assay kit (Thermo Fisher, Australia). All samples were analysed using the Perkin Elmer 2480 Wizard2™ gamma counter (PerkinElmer, Massachusetts, USA) and were normalised according to protein concentration. Half-maximal inhibitory concentrations (IC50) were determined using nonlinear regression calculated using GraphPad Prism Software (GraphPad Software, California, USA).
The compounds were evaluated for their ability to disrupt the binding between CCK-2 receptor (CCK-2R) and [^177Lu]Lu-DOTA-CP04 using the methodology described above and compared to comparative example-2 (FIG. 2; Table 5).

In the case of `CCCC[C@@H](C(=O)N[C@@H](CC(=O)O)C(=O)N(C)[C@@H](Cc1cccc2ccccc12)C(N)=O)N(C)C(=O)[C@H](Cc1c[nH]c2ccccc12)NC(=O)CN(C)C(=O)[C@H](Cc1ccc(O)cc1)NC(=O)[C@H](C)NC(=O)[C@@H](CCC(=O)O)NC(=O)[C@@H](CCC(=O)O)NC(=O)[C@@H](CCC(=O)O)NC(=O)[C@@H](C)NC(=O)[C@@H](CCC(=O)O)NC(=O)[C@@H](CCC(=O)O)NC(=O)CN1CCN(CC(=O)O)CCN(CC(=O)O)CCN(CC(=O)O)CC1` [Compound 4] ({DOTA}-[dE][dE][dA][dE][dE][dE]AY[Sar]W[NMeNle]D[NMe1Nal]-NH2), the share remaining – broadly, what is left of the initial amount, in per cent – at 1.5 h in “in vitro” was 100%.

`CCCC[C@@H](C(=O)N[C@@H](CC(=O)O)C(=O)N[C@@H](Cc1ccccc1)C(N)=O)N(C)C(=O)[C@H](Cc1c[nH]c2ccccc12)NC(=O)CN(C)C(=O)[C@H](Cc1ccc(O)cc1)NC(=O)[C@H](C)NC(=O)[C@@H](CCC(=O)O)NC(=O)[C@@H](CCC(=O)O)NC(=O)[C@@H](CCC(=O)O)NC(=O)[C@@H](C)NC(=O)[C@@H](CCC(=O)O)NC(=O)[C@@H](CCC(=O)O)NC(=O)CN1CCN(CC(=O)O)CCN(CC(=O)O)CCN(CC(=O)O)CC1` [^natGa-3, metal not drawn] ({DOTA}-[dE][dE][dA][dE][dE][dE]AY[Sar]W[NMeNle]DF-NH2): the IC50 (commonly the concentration that gives 50% inhibition) in data set [1] is 42 pM.

As for `CCCC[C@@H](C(=O)N[C@@H](CC(=O)O)C(=O)N(C)[C@@H](Cc1cccc2ccccc12)C(N)=O)N(C)C(=O)[C@H](Cc1c[nH]c2ccccc12)NC(=O)CN(C)C(=O)[C@H](Cc1ccc(O)cc1)NC(=O)[C@H](C)NC(=O)[C@@H](CCC(=O)O)NC(=O)[C@@H](CCC(=O)O)NC(=O)[C@@H](CCC(=O)O)NC(=O)[C@@H](C)NC(=O)[C@@H](CCC(=O)O)NC(=O)[C@@H](CCC(=O)O)NC(=O)CN1CCN(CC(=O)O)CCN(CC(=O)O)CCN(CC(=O)O)CC1` [^natGa-4, metal not drawn] ({DOTA}-[dE][dE][dA][dE][dE][dE]AY[Sar]W[NMeNle]D[NMe1Nal]-NH2), in data set [1], the IC50 was found to be 96 pM.

As to `CCCC[C@@H](C(=O)N[C@@H](CC(=O)O)C(=O)N(C)[C@@H](Cc1cccc2ccccc12)C(N)=O)N(C)C(=O)[C@H](Cc1c[nH]c2ccccc12)NC(=O)CN(C)C(=O)[C@H](Cc1ccc(O)cc1)NC(=O)[C@H](C)NC(=O)[C@@H](CCC(=O)O)NC(=O)[C@@H](CCC(=O)O)NC(=O)[C@@H](CCC(=O)O)NC(=O)[C@@H](CCC(=O)O)NC(=O)[C@@H](CCC(=O)O)NC(=O)[C@@H](CCC(=O)O)NC(=O)CN1CCN(CC(=O)O)CCN(CC(=O)O)CCN(CC(=O)O)CC1` [^natGa-Cmp ex-2, metal not drawn, reference compound] ({DOTA}-[dE][dE][dE][dE][dE][dE]AY[Sar]W[NMeNle]D[NMe1Nal]-NH2), the IC50 in data set [1] was 158 pM.
